# Reference: patent EP0675728B1, “PRODUCTS AND METHODS FOR IMPROVING KE[…] TO THE DERMIS” (STATE OF OREGON BY AND THROUGH OREGON STATE BOARD OF HIGHER …, priority 1992, dated 1994)
# How the values were obtained:
# keratinocytes = conditions: just-subconfluent keratinocyte cultures, 60 minutes' incubation; BM165 mAb 50 µg/mL, 10-mM EDTA
# Description: Cells were grown in Keratinocyte Growth Medium (KGM) containing 0.15 mM CaCl2 and subcultured according to the manufacturer's instructions (Clonetics). For most immunocytochemical experiments, first- or second-passage cells were grown in glass or plastic chamber slides (Lab-Tek) or on glass cover slips to approximately 80 percent confluency. For large-scale collection, spent-media cells were grown in 150-cm^2 tissue culture dishes and fed three times per week with 15 mL fresh media.
# Keratinocytes were grown to near confluence and either fixed immediately (FIGS. 4B and 4D) or washed with PBS and incubated with BM165 mAb (50 µg/mL) followed by 5-nm gold-conjugated secondary antibody prior to fixation (FIGS. 4A and 4C).
# To further pursue these observations, just-subconfluent keratinocyte cultures were separately incubated with purified BM165 mAb for 10 and 60 minutes. After incubation, the cultures were photographed (FIGS. 5A-F). Purified mAbs in PBS, PBS alone, or 10-mM EDTA were incubated with keratinocytes in parallel. Parallel cultures were also incubated with anti-type-VII monoclonal IgG in PBS for the corresponding same length of time.
Compound,secretion of kalinin into the medium (secretion of kalinin),rounding and detachment of dermal fibroblasts (Dermal fibroblasts),rounding and detachment of the keratinocytes (keratinocytes)
COc1cc2c(c(OC)c1OC)-c1ccc(OC)c(=O)cc1[C@@H](NC(C)=O)CC2 [colchicine],inhibited,,
O=C(O)CN(CCN(CC(=O)O)CC(=O)O)CC(=O)O [EDTA],,rounded and detached,extensive rounding and detachment
